Data from US11957655B2, “Methods of treating hearing loss” (The Regents of the University of California, priority 2015, dated 2024).

Experiments:
[1] = tested on: SERCA2b; fibroblast cells from TMTC4 KO and wild type mice; assay: UPR stress pathway gene mRNA in fibroblasts treated with thapsigargin; type: cell-based, mouse; conditions: TMTC4 KO compared to wild type cells
Experimental: Fibroblast cells were generated from TMTC4 KO mice and wild type mice. One group of cells was treated with the SERCA2b inhibitor thapsigargin. The expression of UPR stress pathway genes spliced X-box binding protein 1 (S-XBP1), the molecular chaperone BiP, and the pro-apoptotic protein CHOP were measured by mRNA quantification. The expression of the UPR stress response markers was low and was about equal in untreated wild type and TMTC4 KO cells.

[2] = tested on: SERCA2b; cochlear explants from TMTC4 KO and wild type mice; assay: UPR stress pathway and Caspase 3 mRNA in cochlear explants treated with thapsigargin; type: cell-based, mouse; conditions: thapsigargin treated cochlear explants from TMTC4 KO and wild type mice (FIG. 2)
Experimental: FIG. 2. SYBR Green measurement of qPCR product measuring RNA expression of spliced X-box binding protein 1 (S-XBP1), the molecular chaperone BiP, the pro-apoptotic protein CHOP, and Caspase 3 in cochlear explants from mice. WT=wild type and KO=TMTC4 knockout mice. +TG indicates explants treated with the SERCA2b inhibitor thapsigargin. In another experiment, cochlear explants from TMTC4 KO and wild type mice were extracted. One group of explants was treated with the SERCA2b inhibitor thapsigargin. The expression of UPR stress pathway genes S-XBP1 BiP, CHOP, and the apoptotic gene Caspase 3 were measured by mRNA quantification (FIG. 2). In the untreated explants, the expression of the UPR stress response markers and of Caspase3 were about equal.

[3] = tested on: wild type fibroblasts (ER Ca2+); assay: Ca2+ quantification in intracellular compartments of fibroblasts by Mag-FURA-2 imaging; type: cell-based, mouse; conditions: ten minutes with 1 micromolar ATP and 1 micromolar thapsigargin
Experimental: In one experiment, quantification of Ca2^+ was performed in intracellular compartments of fibroblasts by Mag-FURA-2 imaging. In wild type fibroblasts, an area of high Ca2^+ concentration in the perinuclear region corresponding to the ER was observed. […] Quantification of the Ca2^+ gradient between ER and cytosol compartments in fibroblasts was also measured in both wild type and TMTC4 KO mice.

[4] = tested on: UPR induction (CHOP and ATF4 mRNA) in HEK293T cells; assay: UPR induction by thapsigargin in HEK293T cells, CHOP and ATF4 mRNA by qPCR; type: cell-based; conditions: HEK293T cells pretreated with ISRIB vs control formulation, then 1 micromolar thapsigargin
Experimental: In another experiment, HEK293T cells were pretreated with a control formulation or ISRIB, […], then exposed […] to 1 micromolar thapsigargin for 2 hours. CHOP and ATF4 mRNA levels were then assessed by qPCR.

[5] = tested on: wild type mice exposed to damaging noise; assay: Noise-induced hearing loss in wild type mice, ABR threshold; type: in vivo, mouse; conditions: 2.5 mg/kg intraperitoneal 4 hours before damaging noise, treated vs untreated (FIG. 9, N=3)
Experimental: FIG. 9 depicts ABR threshold to click, 8 kHz, and 16 kHz stimuli in mice treated with ISRIB (dotted line, N=3)) compared with vehicle (solid line, N=3). All values are means with error bars indicating the standard error of the mean.
Wild type mice were subjected to the same treatment and cochleae were subsequently removed and apoptotic ER response gene expression was assessed.
ISRIB was delivered […] via intraperitoneal injection 4 hours before exposure to damaging noise, at 2.5 mg/kg.

Row | SMILES | expression of UPR stress response markers (S-XBP1, BiP, CHOP) mRNA [1] | expression of UPR stress response markers (S-XBP1, BiP, CHOP) and Caspase 3 mRNA [2] | Ca2+ concentration of perinuclear region (ER) [3] | ATF4 mRNA expression [4] | CHOP mRNA expression [4] | ABR threshold to clicks at 8 kHz and 16 kHz [5]
1 | C/C=C(/C)C(=O)O[C@H]1C(C)=C2[C@H]([C@@H]1OC(=O)CCCCCCC)[C@@](C)(OC(C)=O)C[C@H](OC(=O)CCC)[C@@]1(O)[C@H]2OC(=O)[C@@]1(C)O [thapsigargin] | substantially elevated in the TMTC4 KO cells compared to wild type cells | substantially elevated | reduced to that observed in the surrounding cytosol | – | – | –
2 | O=C(COc1ccc(Cl)cc1)N[C@H]1CC[C@H](NC(=O)COc2ccc(Cl)cc2)CC1 [ISRIB, trans-N,N′-(cyclohexane-1,4-diyl)bis(2-(4-chlorophenoxy)acetamide)] | – | – | – | significant and substantial reduction | significant and substantial reduction | lower in treated mice than in untreated mice
